Consider two molecules from BindingDB's records for doi:10.1016/j.ejmech.2014.11.002 (Universitat Rovira I Virgili, 2015).

Assay [1] deals with Cytosolic beta-glucosidase (Bos taurus). The experiment in a line: Inhibition of bovine liver beta-glucosidase at pH 7.3 incubated for 10 to 30 mins using beta-D-glycopyranoside substrate by spectrophotometry.
Assay [2] shares this target. Briefly: Inhibition of bovine liver beta-glucosidase at pH 5.5 incubated for 10 to 30 mins using beta-D-glycopyranoside substrate by spectrophotometry.

Molecules are shown by their SMILES. pKi: −log10 of the molar value.

`COC(=O)CCCCCCCCCCCCCCCSC1=N[C@H]2O[C@H](CO)[C@@H](O)[C@H](O)[C@H]2O1`: the values for the pKi in assay [1] and in assay [2] were 4.58 and 4.35, respectively.

Consider `OC[C@H]1O[C@@H]2N=C(SCCCCCCCCCCCCCCCCF)O[C@@H]2[C@@H](O)[C@@H]1O`, for which the pKi in assay [1] was 4.95; in assay [2], 4.18.

One may read the pKi as the negative decadic logarithm of the Ki, by convention in mol/L.
